Columns and labels:
rat P2X7 [1] = biological target: T1, rat P2X7 (Rattus norvegicus (Rat), UniProt Q64663); test: Radioligand binding, rat P2X7-1321N1 cell membranes, tracer tritiated A-804598; settings: rat P2X7-1321N1 membranes; 1 hour at 4° C.; IC50 corrected for tracer concentration and affinity
Protocol: (§1) On the day of the experiment, cell membrane preparations were made according to standard published methods. […] The compound can be prepared as described in the literature. […] The assay was terminated by filtration (GF/B filters pre-soaked with 0.3% PEI) and washed with washing buffer (Tris-HCl 50 mM). The IC50 generated in the binding assay was corrected for tracer concentration and affinity of the tracer to derive at the affinity (Ki) of the test compounds.

P2X7 [2] = biological target: T2, P2X7 (Homo sapiens (Human), UniProt Q99572); test: P2X7 antagonism in human whole blood (IL-1β release, ELISA); assay type: cell-based; settings: IL-1β release in human blood, LPS 30 ng/ml + Bz-ATP 1 mM
T2 sequence (Q99572 whole entry): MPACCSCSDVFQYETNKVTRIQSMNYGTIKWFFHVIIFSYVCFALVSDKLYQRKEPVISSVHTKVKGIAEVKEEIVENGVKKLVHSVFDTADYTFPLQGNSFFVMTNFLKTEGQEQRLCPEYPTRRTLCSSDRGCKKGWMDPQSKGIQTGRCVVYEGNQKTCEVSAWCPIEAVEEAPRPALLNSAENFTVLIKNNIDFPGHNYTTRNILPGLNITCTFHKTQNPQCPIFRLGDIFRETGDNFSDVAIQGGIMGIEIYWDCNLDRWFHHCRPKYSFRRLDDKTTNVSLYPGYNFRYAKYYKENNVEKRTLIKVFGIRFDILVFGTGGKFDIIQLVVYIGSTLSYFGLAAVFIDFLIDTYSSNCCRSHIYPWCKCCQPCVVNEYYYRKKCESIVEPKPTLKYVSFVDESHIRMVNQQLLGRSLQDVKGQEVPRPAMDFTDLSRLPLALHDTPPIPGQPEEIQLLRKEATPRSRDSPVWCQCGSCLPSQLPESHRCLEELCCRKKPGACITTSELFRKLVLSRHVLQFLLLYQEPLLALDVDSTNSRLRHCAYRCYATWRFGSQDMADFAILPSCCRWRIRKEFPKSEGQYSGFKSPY
Protocol: Human blood was collected using a blood donor program. […] Cells were incubated for an additional 1.5 hours.

P2X7 [3] = biological target: T2, P2X7; test: Ca2+ flux (FLIPR) in 1321N1 cells expressing recombinant human P2X7 channel; assay type: cell-based; settings: 250 μM BzATP, Calcium-4 dye
In short: (§2)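 1321N1 cells stably expressing P2X7 were loaded with Calcium-4 dye for 60 min in HEPES-buffered saline (pH 7.40, 1 mM CaCl2, 1 mM MgCl2), then preincubated with test compounds for 30 min. Fluorescence change was read 180 s after agonist addition.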

P2X7 [4] = biological target: T2, P2X7; test: Radioligand binding, human P2X7-1321N1 cell membranes, tracer tritiated A-804598; settings: human P2X7-1321N1 membranes; 1 hour at 4° C.; IC50 corrected for tracer concentration and affinity
Protocol: as §1

rat P2X7 [5] = biological target: T1, rat P2X7; test: Ca2+ flux (FLIPR) in 1321N1 cells expressing recombinant rat P2X7 channel; assay type: cell-based; settings: 250 μM BzATP, Calcium-4 dye
In short: as §2

P2X7 [6] = biological target: T2, P2X7; test: P2X7 antagonism in human PBMCs (IL-1β release, ELISA); assay type: cell-based; settings: test compound 10 μM, IL-1β release in human PBMCs, LPS 30 ng/ml + Bz-ATP 0.5 mM, read-out: PBMC 10 μM (% control)
Protocol: Human blood was collected using a blood donor program. […] Cells were incubated for an additional 1.5 hours. […] In Table 2, when the data cell has been left blank, it is intended to mean that the compound was not tested in that assay.

T1 sequence (Q64663 whole entry): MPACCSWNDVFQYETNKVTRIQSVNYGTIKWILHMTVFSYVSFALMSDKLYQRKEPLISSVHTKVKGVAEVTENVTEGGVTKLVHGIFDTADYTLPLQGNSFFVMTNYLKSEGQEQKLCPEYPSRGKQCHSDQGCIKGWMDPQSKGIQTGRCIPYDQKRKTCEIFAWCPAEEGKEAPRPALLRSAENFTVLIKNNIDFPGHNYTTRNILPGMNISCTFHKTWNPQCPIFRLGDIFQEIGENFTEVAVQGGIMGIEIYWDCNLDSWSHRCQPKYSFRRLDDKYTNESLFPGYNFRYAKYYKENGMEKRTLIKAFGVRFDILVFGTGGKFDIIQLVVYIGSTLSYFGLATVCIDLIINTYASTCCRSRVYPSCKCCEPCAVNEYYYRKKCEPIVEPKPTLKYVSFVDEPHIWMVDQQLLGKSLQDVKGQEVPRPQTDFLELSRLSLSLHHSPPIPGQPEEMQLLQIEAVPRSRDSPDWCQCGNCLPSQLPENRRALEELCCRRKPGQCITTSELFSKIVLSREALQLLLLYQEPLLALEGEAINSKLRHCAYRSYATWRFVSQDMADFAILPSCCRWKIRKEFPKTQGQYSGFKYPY

Row | Structure (SMILES) | Ki (rat P2X7 [1]) [nM] | IC50 (P2X7 [2]) [nM] | IC50 (P2X7 [3]) [nM] | Ki (P2X7 [4]) [nM] | IC50 (rat P2X7 [5]) [nM] | remaining activity at 10 µM (P2X7 [6]) [%]
1 | O=C(c1cccc(Cl)c1Cl)N1CCc2c(ncnc2-c2ccn[nH]2)C1 [Example 7, 7-[(2,3-Dichlorophenyl)carbonyl]-4-(1H-pyrazol-5-yl)-5,6,7,8-tetrahydropyrido[3,4-d]pyrimidine] | 14.5 | 560 | 20.7 | 15.4 | 489 | –
2 | O=C(c1cccc(C(F)(F)F)c1Cl)N1CCc2c(ncnc2-c2ccccn2)C1 [Example 12, 7-{[2-Chloro-3-(trifluoromethyl)phenyl]carbonyl}-4-pyridin-2-yl-5,6,7,8-tetrahydropyrido[3,4-d]pyrimidine] | 57.5 | 2000 | 28.1 | 58.9 | 5970 | –
3 | Cn1ccc(-c2ncnc3c2CCN(C(=O)c2cccc(C(F)(F)F)c2Cl)C3)n1 [Example 19, 7-{[2-Chloro-3-(trifluoromethyl)phenyl]carbonyl}-4-(1-methyl-1H-pyrazol-3-yl)-5,6,7,8-tetrahydropyrido[3,4-d]pyrimidine] | – | 630 | 26.1 | 25.1 | 9.9 | 13.8
4 | O=C(c1ccc(Cl)c(F)c1Cl)N1CCc2c(ncnc2-c2ccn[nH]2)C1 [Example 20, 7-[(2,4-Dichloro-3-fluorophenyl)carbonyl]-4-(1H-pyrazol-5-yl)-5,6,7,8-tetrahydropyrido[3,4-d]pyrimidine] | 3.5 | 1230 | 5.9 | 25.1 | 338 | -0.2
5 | O=C(c1cccc(Cl)c1Cl)N1CCc2c(ncnc2-n2nccn2)C1 [Example 23, 7-[(2,3-Dichlorophenyl)carbonyl]-4-(2H-1,2,3-triazol-2-yl)-5,6,7,8-tetrahydropyrido[3,4-d]pyrimidine] | – | 1120 | – | – | – | –
6 | Cc1nc2c(c(-c3ccn[nH]3)n1)CCN(C(=O)c1cccc(C(F)(F)F)c1Cl)C2 [Example 33, 7-{[2-Chloro-3-(trifluoromethyl)phenyl]carbonyl}-2-methyl-4-(1H-pyrazol-5-yl)-5,6,7,8-tetrahydropyrido[3,4-d]pyrimidine] | 12 | 1120 | 8 | 16.4 | 1110 | –
7 | Cc1nc2c(c(-c3[nH]ncc3F)n1)CCN(C(=O)c1cccc(C(F)(F)F)c1Cl)C2 [Example 35, 7-{[2-Chloro-3-(trifluoromethyl)phenyl]carbonyl}-4-(4-fluoro-1H-pyrazol-5-yl)-2-methyl-5,6,7,8-tetrahydropyrido[3,4-d]pyrimidine] | 12.6 | – | 48.3 | 39.8 | 269 | –
8 | Cc1nc2c(c(-c3[nH]ncc3C(F)(F)F)n1)CCN(C(=O)c1cccc(C(F)(F)F)c1Cl)C2 [Example 39, 7-{[2-Chloro-3-(trifluoromethyl)phenyl]carbonyl}-2-methyl-4-[4-(trifluoromethyl)-1H-pyrazol-5-yl]-5,6,7,8-tetrahydropyrido[3,4-d]pyrimidine] | 17.8 | – | 100 | 50.1 | 25.1 | –
9 | O=C(c1cccc(C(F)(F)F)c1Cl)N1CCc2c(ncnc2-c2cscn2)C1 [Example 43, 7-{[2-Chloro-3-(trifluoromethyl)phenyl]carbonyl}-4-(1,3-thiazol-4-yl)-5,6,7,8-tetrahydropyrido[3,4-d]pyrimidine] | 10 | – | 15.8 | 50.1 | 158 | –
10 | O=C(c1cccc(Cl)c1Cl)N1CCc2c(ncnc2-n2nccn2)C1 [Example 107, 7-[(2,3-Dichlorophenyl)carbonyl]-4-(2H-1,2,3-triazol-2-yl)-5,6,7,8-tetrahydropyrido[3,4-d]pyrimidine] | 24 | 1120 | 4.5 | 9.5 | 2480 | –
